As usually defined, the IC50 is the point on the concentration scale where inhibition reaches its midpoint.

Assay [1] has as its target T1, Recombinant human integrin αVβ6 (Homo sapiens, UniProt P06756+P18564).
T1 construct: purchased R&D Systems 3817-AV
Put plainly: Solid Phase Receptor Assay (SPRA) for αVβ6 function. Format: binding. As to conditions: plate-bound human LAP. The protocol:
E. Solid Phase Receptor Assay (SPRA) for αVβ6 Function
Wells were washed 3 times with 150 μL TBS+, and then 150 μL of blocking buffer (TBS+ with 1% bovine serum albumin, Sigma A7906) was added. The plate was incubated for 1 hr at 37° C., and then washed 3× with TBS+ buffer. […] Compounds were diluted to 20 μM and then 1 μL was added to each well of the plate according to a standard template with each sample repeated in triplicate. After incubation for two hours at room temperature, the plate was washed 3× with 150 μL of TBS+ buffer. To each well, 50 μL of biotinylated anti-αV antibody (R&D Systems, BAF1219) at 0.5 μg/mL in TBS+/0.1% BSA were added and the plate was covered and incubated for 1 hr at room temperature. After washing the plate 3× with 150 μL of TBS+ buffer, 50 μL of streptavidin-conjugated horseradish peroxidase (R&D Systems, DY998) diluted in TBS+ blocking buffer were added to the wells and the plate incubated for 20 min at room temperature. The plate was washed 3× with TBS+ buffer followed by 50 μL of TMB substrate (Sigma T4444) added to each well in the dark and the plate incubated for 10 min at room temperature. 25 μL of 1.0 M phosphoric acid was added as a stop solution and the plates were read at 450 nm using a Spectramax plate reader.

Assay [2] has as its target T2, Recombinant human integrin αvβ1 (Homo sapiens, UniProt P05556+P06756).
T2 construct: purchased R&D Systems 6579-AV
Nature of the assay: Solid Phase Receptor Assay (SPRA) for αVβ1 function. Format: binding. The following applies: plate-bound human fibronectin. As for the experimental part: B. Solid Phase Receptor Assay (SPRA) for αVβ1 Function
Wells were washed 3 times with 150 μL TBS+ and then 150 μL of blocking buffer (TBS+ with 1% bovine serum albumin, Sigma A7906) was added. The plate was incubated for 1 hr at 37° C. and then washed 3× with TBS+ buffer. […] Compounds were diluted to 20 μM and 1 μL was added to each well of the plate according to a standard template with each sample repeated in triplicate. After incubation for two hours at room temperature, the plate was washed 3× with 150 μL of TBS+ buffer. To each well, 50 μL of biotinylated anti-αV antibody (R&D Systems, BAF1219) at 1 μg/mL in TBS+/0.1% BSA were added and the plate covered and incubated for 1 hr at room temperature. After washing the plate 3× with 150 μL of TBS+ buffer, 50 μL of streptavidin-conjugated horseradish peroxidase (R&D Systems, DY998) diluted in TBS+ blocking buffer were added to the wells and the plate incubated for 20 min at room temperature. The plate was washed 3× with TBS+ buffer followed by 50 μL of TMB substrate (Sigma, T4444) added to each well in the dark and the plate incubated for 25 min at room temperature. 25 μL of 1.0 M phosphoric acid was added as a stop solution and the plates were read at 450 nm using a Spectramax plate reader.

T1 sequence (P06756 31-992 limits assumed): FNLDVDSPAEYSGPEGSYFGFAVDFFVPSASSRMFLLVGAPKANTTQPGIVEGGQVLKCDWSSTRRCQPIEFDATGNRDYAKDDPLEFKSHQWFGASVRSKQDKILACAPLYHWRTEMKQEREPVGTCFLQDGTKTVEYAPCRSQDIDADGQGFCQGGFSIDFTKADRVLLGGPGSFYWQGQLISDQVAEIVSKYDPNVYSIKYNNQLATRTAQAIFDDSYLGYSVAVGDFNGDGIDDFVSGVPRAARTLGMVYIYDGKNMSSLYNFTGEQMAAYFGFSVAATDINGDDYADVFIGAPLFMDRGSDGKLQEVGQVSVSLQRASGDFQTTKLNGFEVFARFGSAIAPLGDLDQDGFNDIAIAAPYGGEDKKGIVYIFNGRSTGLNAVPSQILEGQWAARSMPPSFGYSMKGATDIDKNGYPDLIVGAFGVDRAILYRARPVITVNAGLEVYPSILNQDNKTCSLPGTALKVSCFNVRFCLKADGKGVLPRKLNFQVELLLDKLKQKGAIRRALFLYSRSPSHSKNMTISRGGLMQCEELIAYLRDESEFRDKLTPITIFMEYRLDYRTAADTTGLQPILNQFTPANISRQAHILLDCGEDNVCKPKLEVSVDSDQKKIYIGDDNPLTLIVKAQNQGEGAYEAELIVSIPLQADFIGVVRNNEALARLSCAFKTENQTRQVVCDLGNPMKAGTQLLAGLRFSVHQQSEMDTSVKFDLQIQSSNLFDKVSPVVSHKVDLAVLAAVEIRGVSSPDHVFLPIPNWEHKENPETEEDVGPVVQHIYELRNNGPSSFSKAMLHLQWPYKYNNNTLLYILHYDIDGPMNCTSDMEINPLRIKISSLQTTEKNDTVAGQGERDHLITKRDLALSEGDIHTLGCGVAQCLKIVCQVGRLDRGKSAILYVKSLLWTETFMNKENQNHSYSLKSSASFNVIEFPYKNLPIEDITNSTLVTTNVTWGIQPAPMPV
T1 sequence (P18564 22-707 limits assumed): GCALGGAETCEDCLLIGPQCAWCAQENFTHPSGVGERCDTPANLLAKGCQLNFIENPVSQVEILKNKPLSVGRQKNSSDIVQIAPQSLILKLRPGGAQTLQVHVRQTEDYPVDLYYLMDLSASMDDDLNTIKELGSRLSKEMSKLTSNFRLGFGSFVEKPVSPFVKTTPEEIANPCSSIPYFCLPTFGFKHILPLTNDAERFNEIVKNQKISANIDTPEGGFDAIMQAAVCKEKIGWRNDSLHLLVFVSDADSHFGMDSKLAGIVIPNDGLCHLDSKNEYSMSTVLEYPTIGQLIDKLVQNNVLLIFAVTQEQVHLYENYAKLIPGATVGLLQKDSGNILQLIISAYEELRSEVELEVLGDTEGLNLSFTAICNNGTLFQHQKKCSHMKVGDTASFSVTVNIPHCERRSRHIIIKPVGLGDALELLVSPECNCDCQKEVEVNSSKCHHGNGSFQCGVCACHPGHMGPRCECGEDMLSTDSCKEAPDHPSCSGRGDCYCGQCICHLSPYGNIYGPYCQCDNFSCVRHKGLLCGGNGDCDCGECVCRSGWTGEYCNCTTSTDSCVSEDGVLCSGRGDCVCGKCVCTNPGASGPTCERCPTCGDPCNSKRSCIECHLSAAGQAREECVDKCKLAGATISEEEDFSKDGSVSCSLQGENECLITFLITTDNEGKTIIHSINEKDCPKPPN
T2 sequence (P06756 31-992 limits assumed): as the sequence (P06756 31-992 limits assumed) above
T2 sequence (P05556 21-728 limits assumed): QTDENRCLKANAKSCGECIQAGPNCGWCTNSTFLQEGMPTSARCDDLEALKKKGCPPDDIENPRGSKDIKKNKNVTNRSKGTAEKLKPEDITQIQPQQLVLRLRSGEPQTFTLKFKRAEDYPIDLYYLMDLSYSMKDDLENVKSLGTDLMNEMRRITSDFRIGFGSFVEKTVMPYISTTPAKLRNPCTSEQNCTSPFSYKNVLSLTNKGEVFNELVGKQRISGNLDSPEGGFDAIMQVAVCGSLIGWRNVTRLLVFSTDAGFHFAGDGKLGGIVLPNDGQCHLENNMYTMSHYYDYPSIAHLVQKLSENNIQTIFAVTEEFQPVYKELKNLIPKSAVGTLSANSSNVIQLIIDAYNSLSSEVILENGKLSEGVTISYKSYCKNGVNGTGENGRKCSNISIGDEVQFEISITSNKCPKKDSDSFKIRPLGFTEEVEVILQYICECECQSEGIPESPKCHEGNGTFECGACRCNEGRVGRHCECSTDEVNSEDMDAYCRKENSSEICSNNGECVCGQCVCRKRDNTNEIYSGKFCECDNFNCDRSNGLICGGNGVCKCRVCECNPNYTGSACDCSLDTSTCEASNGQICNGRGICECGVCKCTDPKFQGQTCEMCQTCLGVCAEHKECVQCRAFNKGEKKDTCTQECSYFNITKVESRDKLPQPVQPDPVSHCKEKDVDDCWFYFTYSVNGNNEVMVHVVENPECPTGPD

For `O=C(O)CC(Cc1cc(OCCc2ccc3c(n2)NCCC3)[nH]n1)c1cccc(F)c1` (centres unmarked) [CC2, reference compound], the figures for the IC50 in assay [1] and in assay [2] were 54 nM and 19 nM, respectively.
In the same order, the values of `COCC1(c2cc(C(CC(=O)O)Cc3cc(OCCc4ccc5c(n4)NCCC5)n(C)n3)cc(C(C)(C)C)c2)CCOCC1` (centres unmarked) [Example 1, 3-[3-tert-butyl-5-[4-(methoxymethyl)tetrahydropyran-4-yl]phenyl]-4-[1-methyl-5-[2-(5,6,7,8-tetrahydro-1,8-naphthyridin-2-yl)ethoxy]pyrazol-3-yl]butanoic acid] are 200 nM and 6 nM.
On the same counts, the results for `CC(C)c1cc(C#N)cc(C(CC(=O)O)Cc2cc(OCCc3ccc4c(n3)NCCC4)n(C)n2)c1` (centres unmarked) [Example 2, 3-(3-cyano-5-isopropylphenyl)-4-(1-methyl-5-(2-(5,6,7,8-tetrahydro-1,8-naphthyridin-2-yl)ethoxy)-1H-pyrazol-3-yl)butanoic acid trifluoroacetic acid] are 20 nM and 9 nM.
On the same counts, the results for `Cn1nc(CC(CC(=O)O)c2cc(Br)cc(S(F)(F)(F)(F)F)c2)cc1OCCc1ccc2c(n1)NCCC2` (centres unmarked) [Example 3, 3-[3-bromo-5-(pentafluoro-sulfanyl)phenyl]-4-[1-methyl-5-[2-(5,6,7,8-tetrahydro-1,8-naphthyridin-2-yl)ethoxy]pyrazol-3-yl]butanoic acid] are 54 nM and 12 nM.
For the molecule `CC(C)c1cc(C(C)C)cc(C(CC(=O)O)Cc2cc(OCCc3ccc4c(n3)NCCC4)n(C)n2)c1` (centres unmarked) [Example 4, 3-(3,5-diisopropylphenyl)-4-[1-methyl-5-[2-(5,6,7,8-tetrahydro-1,8-naphthyridin-2-yl)ethoxy]pyrazol-3-yl]butanoic acid], the values for the IC50 in assay [1] and in assay [2] were 84 nM and 7 nM, respectively.
For `Cn1nc(CC(CC(=O)O)c2cc(C(C)(C)C)cc(C(C)(C)C(F)(F)F)c2)cc1OCCc1ccc2c(n1)NCCC2` (centres unmarked) [Example 5, 3-(3-(tert-butyl)-5-(1,1,1-trifluoro-2-methylpropan-2-yl)phenyl)-4-(1-methyl-5-(2-(5,6,7,8-tetrahydro-1,8-naphthyridin-2-yl)ethoxy)-1H-pyrazol-3-yl) butanoic acid], the IC50 in assay [1] came out at 460 nM; in assay [2], 4 nM.
In the same order, the values of `Cn1nc(CC(CC(=O)O)c2cc(C(C)(C)C)cc(C3(C(F)F)CC3)c2)cc1OCCc1ccc2c(n1)NCCC2` (centres unmarked) [Example 6, 3-(3-(tert-butyl)-5-(1-(difluoromethyl)cyclopropyl)phenyl)-4-(1-methyl-5-(2-(5,6,7,8-tetrahydro-1,8-naphthyridin-2-yl)ethoxy)-1H-pyrazol-3-yl)butanoic acid] are 140 nM and 5 nM.
On the same counts, the results for `Cn1nc(CC(CC(=O)O)c2cc(C(C)(C)C)cc(C(C)(C)CO)c2)cc1OCCc1ccc2c(n1)NCCC2` (centres unmarked) [Example 7, 3-[3-tert-butyl-5-(2-hydroxy-1,1-dimethyl-ethyl)phenyl]-4-[1-methyl-5-[2-(5,6,7,8-tetrahydro-1,8-naphthyridin-2-yl)ethoxy]pyrazol-3-yl]butanoic acid] are 300 nM and 3 nM.
In the same order, the values of `Cn1nc(CC(CC(=O)O)c2cc(Cl)cc(C(C)(C)C#N)c2)cc1OCCc1ccc2c(n1)NCCC2` (centres unmarked) [Example 8, 3-(3-chloro-5-(2-cyanopropan-2-yl)phenyl)-4-(1-methyl-5-(2-(5,6,7,8-tetrahydro-1,8-naphthyridin-2-yl)ethoxy)-1H-pyrazol-3-yl)butanoic acid] are 36 nM and 2 nM.
With `Cn1nc(CC(CC(=O)O)c2cc(C(C)(C)C)cc(C(C)(C)C#N)c2)cc1OCCc1ccc2c(n1)NCCC2` (centres unmarked) [Example 9, 3-[3-tert-butyl-5-(1-cyano-1-methyl-ethyl)phenyl]-4-[1-methyl-5-[2-(5,6,7,8-tetrahydro-1,8-naphthyridin-2-yl)ethoxy]pyrazol-3-yl]butanoic acid], the IC50 was determined as 150 nM in assay [1] and 2 nM in assay [2].
For the molecule `COc1c(C(C)(C)C)cc(C(CC(=O)O)Cc2cc(OCCc3ccc4c(n3)NCCC4)n(C)n2)cc1C(C)(C)C` (centres unmarked) [Example 10, 3-(3,5-di-tert-butyl-4-methoxyphenyl)-4-(1-methyl-5-(2-(5,6,7,8-tetrahydro-1,8-naphthyridin-2-yl)ethoxy)-1H-pyrazol-3-yl)butanoic acid], the results for the IC50 in assay [1] and in assay [2] were 130 nM and 4 nM, respectively.
As to `COc1c(C(CC(=O)O)Cc2cc(OCCc3ccc4c(n3)NCCC4)n(C)n2)cc(C(C)(C)C)cc1C(C)(C)C` (centres unmarked) [Example 11, 3-(3,5-di-tert-butyl-2-methoxyphenyl)-4-(1-methyl-5-(2-(5,6,7,8-tetrahydro-1,8-naphthyridin-2-yl)ethoxy)-1H-pyrazol-3-yl)butanoic acid], the values for the concentration for half-maximal inhibition (IC50) in assay [1] and in assay [2] were 11000 nM and 800 nM, respectively.
In the same order, the values of `COc1c(Br)cc(C(C)(C)C)cc1C(CC(=O)O)Cc1cc(OCCc2ccc3c(n2)NCCC3)n(C)n1` (centres unmarked) [Example 12, 3-(3-bromo-5-(tert-butyl)-2-methoxyphenyl)-4-(1-methyl-5-(2-(5,6,7,8-tetrahydro-1,8-naphthyridin-2-yl)ethoxy)-1H-pyrazol-3-yl)butanoic acid] are 180 nM and 13 nM.
On the same counts, the results for `COc1cc(C(CC(=O)O)Cc2cc(OCCc3ccc4c(n3)NCCC4)n(C)n2)cc(C23CC4CC(CC(C4)C2)C3)c1OCc1ccccc1` (centres unmarked) [Example 13, 3-[3-(1-adamantyl)-4-benzyloxy-5-methoxy-phenyl]-4-[1-methyl-5-[2-(5,6,7,8-tetrahydro-1,8-naphthyridin-2-yl)ethoxy]pyrazol-3-yl]butanoic acid] are 170 nM and 21 nM.
In the same order, the values of `COc1cc(C(CC(=O)O)Cc2cc(OCCc3ccc4c(n3)NCCC4)n(C)n2)cc(C23CC4CC(CC(C4)C2)C3)c1OC` (centres unmarked) [Example 14, 3-[3-(1-adamantyl)-4,5-dimethoxy-phenyl]-4-[1-methyl-5-[2-(5,6,7,8-tetrahydro-1,8-naphthyridin-2-yl)ethoxy]pyrazol-3-yl]butanoic acid] are 170 nM and 9 nM.
With `Cn1nc(CC(CC(=O)O)c2cc3c(c(C(C)(C)C)c2)OCO3)cc1OCCc1ccc2c(n1)NCCC2` (centres unmarked) [Example 15], the IC50 in assay [1] worked out at 60 nM; in assay [2], 3 nM.
Consider `Cn1nc(CC(CC(=O)O)c2cc3c(c(C(C)(C)C)c2)OCCO3)cc1OCCc1ccc2c(n1)NCCC2` (centres unmarked) [Example 16, 3-(8-(tert-butyl)-2,3-dihydrobenzo[b][1,4]dioxin-6-yl)-4-(1-methyl −5-(2-(5,6,7,8-tetrahydro-1,8-naphthyridin-2-yl)ethoxy)-1H-pyrazol-3-yl) butanoic acid], for which the results for the IC50 in assay [1] and in assay [2] were 19 nM and 5 nM, respectively.
In the case of `Cn1nc(CC(CC(=O)O)c2cc(C(C)(C)C)ccc2Br)cc1OCCc1ccc2c(n1)NCCC2` (centres unmarked) [Example 17, 3-(2-bromo-5-(tert-butyl)phenyl)-4-(1-methyl-5-(2-(5,6,7,8-tetrahydro-1,8-naphthyridin-2-yl)ethoxy)-1H-pyrazol-3-yl)butanoic acid], the IC50 was determined as 1900 nM in assay [1] and 14 nM in assay [2].
On the same counts, the results for `Cn1nc(CC(CC(=O)O)c2cc(C(C)(C)C)ccc2C#N)cc1OCCc1ccc2c(n1)NCCC2` (centres unmarked) [Example 18, 3-(5-(tert-butyl)-2-cyanophenyl)-4-(1-methyl-5-(2-(5,6,7,8-tetrahydro-1,8-naphthyridin-2-yl)ethoxy)-1H-pyrazol-3-yl)butanoic acid] are 12 nM and 5 nM.
